Source: US7312188B2, “Peptide derivatives having β-secretase inhibitory activity” (priority 2003, dated 2007)
Numbered stars: 1 amine (or outer) side, 2 acyl side, 3 side chain; on linkers, the order of the positions; unused ones are H or OH. Square brackets hold non-standard residues; d marks the D form. Peptide text beside a SMILES is read from it. * marks the point of attachment. ξ: configuration not given here. β3hPhe(2R-OH) = O=C([C@H](O)[C@H](Cc1ccccc1)N[*:1])[*:2]; X2 = O=C([C@H](O)[C@H](CSc1ccccc1)N[*:1])[*:2]; Benzoyl(3-COOH) = O=C(O)c1cccc(C(=O)*)c1; Benzoyl(4-COOH) = O=C(O)c1ccc(C(=O)*)cc1; Tetrazole5carbonyl = O=C(c1nn[nH]n1)*; Oxalyl = O=C(C(=O)[*:2])[*:1]; Tle = CC(C)(C)[C@H](N)C(=O)O; 3Abz = Nc1cccc(C(=O)O)c1; 4Abz = Nc1ccc(C(=O)O)cc1; 2Abz = Nc1ccccc1C(=O)O; Dap = NC[C@H](N)C(=O)O; ξPip = O=C(O)C1CCCCN1; Aib = CC(C)(N)C(=O)O

Target: T1, recombinant human BACE-1 (rhBACE-1) (Homo sapiens, UniProt P56817)
T1 construct: expressed as only an extracellular region (amino acid 1-460 residues) of recombinant human β-secretase; His tag (C); purchased R&D systems (Minneapolis, Minn.); host or cells: murine myeloma cell line NS0
Experiment: BACE1 inhibitory activity, reverse phase HPLC quantitation of N-terminal fragment of fluorogenic substrate
Format: biochemical
Conditions: 1 μL of inhibitor solution in DMSO (100 μM) in 50 μL reaction; MES buffer pH 5.0; 37° C., 60 minutes
Description: Experiment Regarding Measurement of BACE1 Inhibitory Activity
Enzyme Used in Measurement
As an enzyme having β-secretase activity, recombinant human BACE-1 (rhBACE-1) purchased from R&D systems (Minneapolis, Minn.) was used. rhBACE-1 is expressed as only an extracellular region (amino acid 1-460 residues) of recombinant human β-secretase, with a His tag at its carboxyl terminal in murine myeloma cell line, NS0. Purified secreted rhBACE1 is a mixture of a pro entity (about 75 kDa) and a mature entity (about 72 kDa).
Assessment of Enzyme Inhibitory Activity
Enzyme inhibitory activity of an inhibitor was assessed by quantitating an N-terminal fragment produced aftercleaving the substrate with BACE1 by reverse HPLC using (7-methoxycoumarin-4-yl)acetyl-[…]2,4-dinitrophenyl)-Arg-Arg-NH2 purchased from Peptide Institute (Osaka, Japan) as a substrate for BACE1. To 40 μL of 62.5 mM 2-(N-morpholino)ethansulfonic acid (MES)-CH3COOH—NaOH buffer (pH 5.0), were added 1 μL of a solution of an inhibitor diluted with DMSO (100 μM), 4 μL of rhBACE-1 (6.25 ng/μL), and 5 μL of an aqueous solution (50% DMSO) of 250 μM substrate (7-methoxycoumarin-4-yl)acetyl-[…]2,4-dinitrophenyl)-Arg-Arg-NH2 to initiate an enzyme reaction. After incubation at 37° C. for 60 minutes, 20 μL of 20% trichloroacetic acid was added to stop the reaction. And, inhibition % was calculated by measuring a fluorescent intensity of the N-terminal fragment (Ex, 328 nm; Em, 393 nm) using reverse phase HPLC (linear gradient of MeCN in aqueous TFA; flow rate, 1.0 mL/min).
BACE1 Inhibitory Activity
Enzyme inhibitory activity of an inhibitor was assessed by quantitating a N-terminal fragment produced after cleavage of a substrate with BACE1 by reverse phase HPLC using (7-methoxycoumarin-4-yl)acetyl-[…]2,4-dinitrophenyl)-Arg-Arg-NH2 purchased from Peptide Institute (Osaka, Japan) as a substrate for BACE1. Recombinant human BACE-1 purchased from R&D systems (Minneapolis, Minn.) was used. To 40 μL of 62.5 mM 2-(N-morpholino)ethansulfonic acid (MES)-CH3COOH—NaOH buffer (pH 5.0), were added 1 μL of a solution of an inhibitor diluted with DMSO (100 μM), 4 μL of BACE1 (6.25 ng/μL), and 5 μL of an aqueous solution (50% DMSO) of 250 μM substrate (7-methoxycoumarin-4-yl)acetyl-[…]2,4-dinitrophenyl)-Arg-Arg-NH2 to initiate an enzyme reaction. After incubation at 37° C. for 60 minutes, 20 μL of 20% trichloroacetic acid was added to stop a reaction. Inhibition % was calculated by measuring a fluorescent intensity of the N-terminal fragment (Ex, 328 nm; Em, 393 nm) using reverse phase HPLC (linear gradient of MeCN in aqueous TFA; flow rate, 1.0 mL/min).

T1 sequence (P56817 22-460 limits assumed): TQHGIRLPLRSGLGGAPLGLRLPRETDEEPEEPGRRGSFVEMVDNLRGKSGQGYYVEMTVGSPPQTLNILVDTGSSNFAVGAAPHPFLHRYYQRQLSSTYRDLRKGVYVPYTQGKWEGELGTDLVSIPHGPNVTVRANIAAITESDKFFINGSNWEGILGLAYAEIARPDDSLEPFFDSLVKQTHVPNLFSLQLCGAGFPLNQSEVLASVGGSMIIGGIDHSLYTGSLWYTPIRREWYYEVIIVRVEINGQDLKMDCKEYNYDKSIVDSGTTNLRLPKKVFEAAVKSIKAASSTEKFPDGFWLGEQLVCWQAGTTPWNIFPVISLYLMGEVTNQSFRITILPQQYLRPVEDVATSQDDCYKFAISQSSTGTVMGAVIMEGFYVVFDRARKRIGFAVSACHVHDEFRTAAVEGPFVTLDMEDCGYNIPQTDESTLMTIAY

Going from CC(C)C[C@H](NC(=O)[C@@H](NC(=O)[C@@H](N)CCC(=O)O)C(C)C)C(=O)N[C@@H](Cc1ccccc1)[C@@H](O)C(=O)N[C@@H](CC(=O)O)C(=O)N[C@@H](C)C(=O)N1CCCCC1C(=O)O (single isomer, unassigned) [Example 94] to CC(C)C[C@H](NC(=O)[C@@H](NC(=O)[C@@H](N)CCC(=O)O)C(C)C)C(=O)N[C@@H](Cc1ccccc1)[C@@H](O)C(=O)N[C@@H](CC(=O)O)C(=O)N1CCCCC1C(=O)O (stereo partly drawn) [Example 88] (H-EVL[β3hPhe(2R-OH)]D[ξPip]-OH), the inhibition at 2 µM rises from 61.8% to 70.4%.

Going from CC(C)C[C@H](NC(=O)[C@@H](NC(=O)[C@@H](N)CNC(=O)C(=O)O)C(C)C)C(=O)N[C@@H](Cc1ccccc1)[C@@H](O)C(=O)Nc1cccc(C(=O)O)c1 [Example 69] to CC(C)C[C@H](NC(=O)[C@@H](NC(=O)[C@H](CN)NC(=O)C(=O)O)C(C)C)C(=O)N[C@@H](Cc1ccccc1)[C@@H](O)C(=O)Nc1cccc(C(=O)O)c1 [Example 77], the inhibition at 2 µM falls from 98.4% to 87.9%.

Compared with CC(C)C[C@H](NC(=O)[C@@H](NC(=O)[C@@H](N)CNC(=O)C(=O)O)C(C)C)C(=O)N[C@@H](Cc1ccccc1)[C@@H](O)C(=O)N[C@@H](CC(=O)O)C(=O)Nc1cccc(C(=O)O)c1 [Example 70] (H-[Dap](Oxalyl)VL[β3hPhe(2R-OH)]D[3Abz]-OH), CC(C)C[C@H](NC(=O)[C@@H](NC(=O)[C@@H](N)CNC(=O)C(=O)O)C(C)C)C(=O)N[C@@H](Cc1ccccc1)[C@@H](O)C(=O)N[C@@H](CC(=O)O)C(=O)Nc1ccc(C(=O)O)cc1 [Example 71] (H-[Dap](Oxalyl)VL[β3hPhe(2R-OH)]D[4Abz]-OH) is lower in inhibition at 2 µM: 98.3% for the first, 97.9% for the second.

First: CCOC(=O)c1cccc(NC(=O)c2cccc(NC(=O)[C@H](O)[C@H](Cc3ccccc3)NC(=O)[C@H](CC(C)C)NC(=O)[C@@H](NC(=O)[C@@H](N)CCC(=O)O)C(C)C)c2)c1 [Example 72]
Second: CC(C)C[C@H](NC(=O)[C@@H](NC(=O)[C@@H](N)CCC(=O)O)C(C)C)C(=O)N[C@@H](Cc1ccccc1)[C@@H](O)C(=O)N[C@@H](CC(=O)O)C(=O)Nc1cccc(C(=O)O)c1 [Example 79] (H-EVL[β3hPhe(2R-OH)]D[3Abz]-OH)
The inhibition at 2 µM of the first is higher: 95% for the first, 85.3% for the second.

Compared with CC(C)C[C@H](NC(=O)[C@@H](NC(=O)[C@@H](N)CNC(=O)c1nnn[nH]1)C(C)C)C(=O)N[C@@H](Cc1ccccc1)[C@@H](O)C(=O)N[C@@H](CC(=O)O)C(=O)N[C@@H](C)C(=O)N[C@@H](CCC(=O)O)C(=O)O [Example 73] (H-[Dap](Tetrazole5carbonyl)VL[β3hPhe(2R-OH)]DAE-OH), CC(C)C[C@H](NC(=O)[C@@H](NC(=O)[C@@H](N)CNC(=O)c1ccc(C(=O)O)cc1)C(C)C)C(=O)N[C@@H](Cc1ccccc1)[C@@H](O)C(=O)N[C@@H](CC(=O)O)C(=O)N[C@@H](C)C(=O)N[C@@H](CCC(=O)O)C(=O)O [Example 81] (H-[Dap](Benzoyl(4-COOH))VL[β3hPhe(2R-OH)]DAE-OH) is lower in inhibition at 2 µM: 93% for the first, 82.9% for the second.

Compared with CC(C)C[C@H](NC(=O)[C@@H](NC(=O)[C@@H](N)CCC(=O)O)C(C)C)C(=O)N[C@@H](Cc1ccccc1)[C@@H](O)C(=O)N[C@@H](CC(=O)O)C(=O)Nc1ccc(C(=O)O)cc1 [Example 76] (H-EVL[β3hPhe(2R-OH)]D[4Abz]-OH), CC(C)C[C@H](NC(=O)[C@@H](NC(=O)[C@@H](N)CCC(=O)O)C(C)C)C(=O)N[C@@H](Cc1ccccc1)[C@@H](O)C(=O)N[C@@H](CC(=O)O)C(=O)N[C@@H](C)C(=O)Nc1ccc(C(=O)O)cc1 [Example 93] (H-EVL[β3hPhe(2R-OH)]DA[4Abz]-OH) is lower in inhibition at 2 µM: 89.5% for the first, 64.8% for the second.

Going from CC(C)C[C@H](NC(=O)[C@@H](NC(=O)[C@@H](N)CCC(=O)O)C(C)C)C(=O)N[C@@H](Cc1ccccc1)[C@@H](O)C(=O)N[C@@H](CC(=O)O)C(=O)N[C@@H](Cc1ccccc1)C(=O)N[C@@H](CCC(=O)O)C(=O)N[C@@H](Cc1ccccc1)C(=O)O [Example 80] (H-EVL[β3hPhe(2R-OH)]DFEF-OH) to CC(C)C[C@H](NC(=O)[C@@H](NC(=O)[C@@H](N)CCC(=O)O)C(C)C)C(=O)N[C@@H](Cc1ccccc1)[C@@H](O)C(=O)N[C@@H](CC(=O)O)C(=O)N[C@H](C(=O)N[C@@H](CCC(=O)O)C(=O)N[C@@H](Cc1ccccc1)C(=O)O)C(C)(C)C [Example 86] (H-EVL[β3hPhe(2R-OH)]D[Tle]EF-OH), the inhibition at 2 µM falls from 83.2% to 75%.

First: CC(C)C[C@H](NC(=O)[C@@H](NC(=O)[C@@H](N)CCC(=O)O)C(C)C)C(=O)N[C@@H](CSc1ccccc1)[C@@H](O)C(=O)N[C@@H](CC(=O)O)C(=O)N[C@@H](C)C(=O)N[C@@H](CCC(=O)O)C(=O)N[C@@H](Cc1ccccc1)C(=O)O [Example 82] (H-EVL[X2]DAEF-OH)
Second: CC(C)C[C@H](NC(=O)[C@@H](NC(=O)[C@@H](N)CNC(=O)c1cccc(C(=O)O)c1)C(C)C)C(=O)N[C@@H](Cc1ccccc1)[C@@H](O)C(=O)N[C@@H](CC(=O)O)C(=O)N[C@@H](C)C(=O)N[C@@H](CCC(=O)O)C(=O)O [Example 84] (H-[Dap](Benzoyl(3-COOH))VL[β3hPhe(2R-OH)]DAE-OH)
The inhibition at 2 µM of the first is higher: 81.8% for the first, 79.1% for the second.

Going from CC(C)C[C@H](NC(=O)[C@@H](NC(=O)[C@@H](N)CCC(=O)O)C(C)C)C(=O)N[C@@H](Cc1ccccc1)[C@@H](O)C(=O)Nc1ccc(Cl)c(C(=O)O)c1 [Example 83] to CC(C)C[C@H](NC(=O)[C@@H](NC(=O)[C@@H](N)CCC(=O)O)C(C)C)C(=O)N[C@@H](Cc1ccccc1)[C@@H](O)C(=O)Nc1ccc(CC(=O)O)cc1 [Example 89], the inhibition at 2 µM falls from 80.1% to 69.8%.

Going from CC(C)C[C@H](NC(=O)[C@@H](NC(=O)[C@H](CN)NC(=O)C(=O)O)C(C)C)C(=O)N[C@@H](Cc1ccccc1)[C@@H](O)C(=O)N[C@@H](CC(=O)O)C(=O)N[C@@H](C)C(=O)N[C@@H](CCC(=O)O)C(=O)O [Example 85] (Oxalyl-[Dap]VL[β3hPhe(2R-OH)]DAE-OH) to CC(C)C[C@H](NC(=O)[C@@H](NC(=O)[C@@H](N)CCC(=O)O)C(C)C)C(=O)N[C@@H](Cc1ccccc1)[C@@H](O)C(=O)N[C@@H](CC(=O)O)C(=O)NC(C)(C)C(=O)N[C@@H](CCC(=O)O)C(=O)O [Example 91] (H-EVL[β3hPhe(2R-OH)]D[Aib]E-OH), the inhibition at 2 µM falls from 75.2% to 68.9%.

Going from CC(C)C[C@H](NC(=O)[C@@H](NC(=O)[C@@H](N)CCC(=O)O)C(C)C)C(=O)N[C@@H](CSc1ccccc1)[C@@H](O)C(=O)N[C@@H](CC(=O)O)C(=O)O [Example 90] (H-EVL[X2]D-OH) to CC(C)C[C@H](NC(=O)[C@@H](NC(=O)[C@@H](N)CCC(=O)O)C(C)C)C(=O)N[C@@H](Cc1ccccc1)[C@@H](O)C(=O)N[C@@H](CC(=O)O)C(=O)N[C@@H](C)C(=O)Nc1cccc(C(=O)O)c1 [Example 92] (H-EVL[β3hPhe(2R-OH)]DA[3Abz]-OH), the inhibition at 2 µM falls from 69% to 65.4%.

Compared with CC(C)C[C@H](NC(=O)[C@@H](NC(=O)[C@@H](N)CNC(=O)C(=O)O)C(C)C)C(=O)N[C@@H](Cc1ccccc1)[C@@H](O)C(=O)Nc1ccc(C(=O)O)cc1 [Example 68], CC(C)C[C@H](NC(=O)[C@@H](NC(=O)[C@H](CN)NC(=O)C(=O)O)C(C)C)C(=O)N[C@@H](Cc1ccccc1)[C@@H](O)C(=O)Nc1ccc(C(=O)O)cc1 [Example 74] is lower in inhibition at 100 µM (stock): 98.8% for the first, 90.5% for the second.

Going from CC(C)C[C@H](NC(=O)[C@@H](NC(=O)[C@@H](N)CCC(=O)O)C(C)C)C(=O)N[C@@H](Cc1ccccc1)[C@@H](O)C(=O)N[C@@H](CC(=O)O)C(=O)Nc1ccccc1C(=O)O [Example 78] (H-EVL[β3hPhe(2R-OH)]D[2Abz]-OH) to CC(C)C[C@H](NC(=O)[C@@H](NC(=O)[C@@H](N)CCC(=O)O)C(C)C)C(=O)N[C@@H](Cc1ccccc1)[C@@H](O)C(=O)N[C@@H](CC(=O)O)C(=O)N[C@@H](C)C(=O)Nc1ccccc1C(=O)O [Example 87] (H-EVL[β3hPhe(2R-OH)]DA[2Abz]-OH), the inhibition at 100 µM (stock) falls from 85.8% to 72.2%.
